The source of these data is article PMC10218704, “A Novel Blood–Brain Barrier-Penetrating and Vascular-Targeting Chimeric Peptide Inhibits Glioma Angiogenesis” (International Journal of Molecular Sciences, 2023).

The test system of series [1] is zebrafish embryo intersegmental vessel. In words: Zebrafish embryo intersegmental vessel angiogenesis. Type of series: in vivo. The following applies: 25 µmol/L; 24 h; 28 °C; fluorescence microscope; vs control; n = 3. The procedure:
After a certain period, healthy, sexually mature female and male zebrafish were mated in a 1:1 ratio. After 24 h, the fertilized eggs were removed, disinfected, and washed, and then placed in embryo culture water and cultured in an incubator at 28 °C for 24 h. The fertilized eggs were washed with chain enzyme protease E solution (1 mg/mL) to remove the egg membrane on the surface and placed under a microscope to observe and select the normally developing zebrafish embryos, and then placed into a 24-well plate. […] The control group was added with the same volume of embryo culture water, and then placed in an incubator at 28 °C for 24 h. Zebrafish embryos were randomly removed from each group and observed under a fluorescence microscope. The total length of zebrafish internode vessels was calculated and counted.

The test system of the next series is HUVECs. As to the kind of experiment: Annexin V-FITC/PI staining, flow cytometry (apoptosis). The format is cell-based, human. The following applies: 320 μmol/L, 24 h. The protocol:
HUVECs were seeded into 6-well culture plates (3 × 10^5 cells/well). […] After discarding the supernatant and washing with cold PBS, the cells were fixed in 4% paraformaldehyde and stained with Hoechst 33,258 for 10 min. Then, the cells were washed with cold PBS and observed using an inverted fluorescence microscope. HUVECs were treated with different peptides (the methods were the same as the Hoechst staining). After 24 h, cells were collected by trypsin digestion and washed with PBS. Annexin V-FITC/PI staining was conducted according to the manufacturer’s instructions for the Apoptosis Detection Kit. Briefly, 195 μL of Annexin V-FITC/PI dilution buffer was added to resuspend the cells. Then, 5 μL of Annexin V-FITC and 10 μL of PI staining solutions were added and gently mixed with the cells. After incubation at room temperature in the dark for 10 min, the apoptotic cells were detected by flow cytometry.

Another series relates to VEGFR-2. The format is binding, human. The following applies: peptide 256 and 1000 nmol/L; VEGF-A165 0.5-8 nmol/L; CM5 chip; HBS-EP. The procedure: To determine the effect of TAT-AT7 in competition with VEGF-A165 binding to VEGFR-2 or NRP-1, the SPR assay was conducted. The whole operation was conducted on a Biacore S200 instrument. The recombinant VEGFR-2 or NRP-1 proteins were firstly immobilized on a CM5 chip by an amine-coupling reaction. VEGF-A165 ligands with gradient concentrations in the absence or presence of different peptides were then flowed over the CM5 chip. The binding of VEGF-A165 ligands to the immobilized recombinant VEGFR-2 or NRP-1 proteins led to an increase of the refractive index on the surface of the chip, which could be converted into the fluctuation of electrical signals in the response (RU). As the concentration of VEGF-A165 was higher, the response value was also higher. However, with the addition of different peptides, the response value decreased to different degrees (Figure 3A and Figure 4A).
(TAT), ATWLPPR (AT7), and […] (TAT-AT7) were synthesized from China Peptides Co., Ltd. (Shanghai, China). The Hoechst 33,258 staining kit, Annexin V-FITC/PI apoptosis detection kit, and BCA protein assay kit were obtained from Beyotime Biotechnology (Nantong, China). The total protein extraction kit was from BestBio (Shanghai, China). The CM5 sensor chip was obtained from GE Healthcare Life Sciences (Uppsala, Sweden). Purified recombinant human VEGFR-2 and NRP-1 receptor proteins were purchased from R&D Systems (Minneapolis, MN, USA). Recombinant human endothelial growth factor-A165 (VEGF-A165) was obtained from PeproTech (Rocky Hill, NJ, USA). Anti-ERK1/2, anti-p-ERK1/2, anti-p-VEGFR-2, anti-AKT, anti-p-AKT, anti-p-SRC, anti-p-FAK, anti-p38 MAPK, anti-p-p38 MAPK, anti-p-PLC-γ, and anti-GAPDH antibodies were purchased from Cell Signaling Technology (Danvers, MA, USA). Anti-VEGFR-2, anti-FAK, and anti-SRC were purchased from Proteintech Group, Inc (Wuhan, China). F-12K medium, heparin, and endothelial cell growth supplement (ECGS) were from Macgene (Beijing, China). DMEM medium and fetal bovine serum (FBS) were obtained from Gibco®, Life Technologies (Carlsbad, CA, USA). […]

In series [2] the test system is intracranial U87-mCherry-luc glioma. As to the kind of experiment: In vivo anti-glioma study (bioluminescence). The following applies: 20 mg/kg/day i.v. (tail vein), 11 days; days 4, 7, 11, 14; n = 5. On the set-up: species or system nude mice. The protocol:
The orthotopic U87-mCherry-luc glioma-bearing nude mice were randomly assigned to 6 groups (n = 5) according to the bioluminescence intensity of glioma measured on day 4. […] The bioluminescence intensity was measured on days 4, 7, 11, and 14, respectively. Nude mice were weighed daily. On day 15, the mice were sacrificed, and the glioma-bearing brains were harvested. The brain tissues were fixed with 4.0% paraformaldehyde, embedded in paraffin, and cut into slices. The TUNEL staining and CD31 immunohistochemical staining were conducted according to standard histological procedures.

The test system of series [3] is NRP-1. The following applies: peptide 1000 nmol/L; VEGF-A165 0.5-8 nmol/L; CM5 chip; HBS-EP.
Protocol: The SPR assay was performed using the Biacore S200 instrument (GE Healthcare, Uppsala, Sweden). Firstly, the CM5 sensor chip was activated with EDC/NHS. Then, the recombinant VEGFR-2 and NRP-1 proteins were immobilized on the surface of the sensor chip according to the operating instructions of amine coupling. VEGF-A165 was diluted to 8, 4, 2, 1, and 0.5 nmol/L in different concentrations of peptide solution dissolved by HBS-EP buffer (0, 0.016, 0.064, 0.256, and 1 μmol/L, respectively). The Kinetics/Affinity program was selected, and the automatic continuous injection program was set. The injection flow rate was 30 μL/min, the injection time was 120 s, and the dissociation time was 220 s. At the same time, zero-concentration injection wells and 0.5 nmol/L repeat-concentration injection wells of VEGF-A165 were set. At the end of each injection, the channels were flushed with glycine-HCl solution for 30 s until response values were returned to baseline.
For the next series, the system named is red blood cells. In words: Hemolysis assay. The following applies: 2.5–640 μmol/L; 37 °C, 1 h; 540 nm; mouse red blood cells; n = 3. The protocol: The fresh blood of mice was centrifuged at 2000 r/min for 10 min, and the upper layer of serum was discarded, then mixed with normal saline and centrifuged at 2000 r/min for 10 min, repeated three times, and the supernatant was removed to obtain the lower layer of red blood cells. Then, 1 mL of red blood cells was diluted to 50 mL with normal saline. […] The samples were incubated at 37 °C for 1 h, centrifuged at 2000 r/min for 10 min, and photographed. Light absorption of samples was measured at 540 nm on a microplate reader.
Cell hemolysis rate (%) = (OD experimental group − negative control group)/(OD positive control group − negative control group) × 100%.

Series [4] concerns NRP-1. The arrangement: method as in 2 sources, ref 21 = [21]; PMID 17983687; doi:10.1016/j.peptides.2007.09.013; 21. Starzec A. Ladam P. Vassy R. Badache S. Bouchemal N. Navaza A. du Penhoat C.H. Perret G.Y. Structure-function analysis of the antiangiogenic ATWLPPR peptide inhibiting VEGF (165) binding to neurop ||| ref 36 = [36]; PMID 11327725; doi:10.1006/bbrc.2001.4790; 36. Jia H. Lohr M. Jezequel S. Davis D. Shaikh S. Selwood D. Zachary I. Cysteine-rich and basic domain HIV-1 Tat peptides inhibit angiogenesis and induce endothelial cell apoptosis Biochem. Biophys. R. The following applies: cited from earlier work.

Regarding `N=C(N)NCCC[C@H](NC(=O)[C@H](CCCNC(=N)N)NC(=O)[C@H](CCCNC(=N)N)NC(=O)[C@H](CCC(N)=O)NC(=O)[C@H](CCCNC(=N)N)NC(=O)[C@H](CCCNC(=N)N)NC(=O)[C@H](CCCCN)NC(=O)[C@H](CCCCN)NC(=O)[C@@H](N)CCCNC(=N)N)C(=O)O` [TAT, reference compound], the intersegmental vascular growth result in series [1] is given as “no obvious effect on intersegmental vascular growth”. In addition, the “induction of apoptosis” value in the series on HUVECs (Hoechst and Annexin V-FITC/PI staining) is given as “no obvious effect of promoting apoptosis”. Further, the “total apoptotic rate (Q1-UR and Q1-LR)” value in the series with HUVECs (mean ± SD, n = 3, control (7.17 ± 1.42)%) is 8.94 ± 3.52%. In addition, the “effect on VEGF-A165 and VEGFR-2 binding (RU)” value in the series with VEGFR-2 is “less inhibitory effects on VEGF-A165 and VEGFR-2 binding than TAT-AT7”. Also, in series [2], the “glioma growth (bioluminescence)” value is on record as “no significant difference compared to the control group”. Moreover, in the series on NRP-1 [3], the “inhibition of binding of VEGF-A165 and NRP-1” value is “displayed inhibitory effects on the binding of VEGF-A165 and NRP-1, but it did not completely inhibit the binding”. In the series on red blood cells, the “hemolysis” value was “did not cause obvious hemolysis” and the hemolysis rate result is reported as “lower than 5%”.

In the case of “KKRRQRRRPPQG [HIV-1 Tat-derived peptide]”, the “disturbing the cross-linking of VEGF to NRP-1” value (“disturbing the cross-linking” for short) in the series on NRP-1 [4] is “displayed potency in disturbing the cross-linking of VEGF to NRP-1”.

Turning to “KRRQRRRPPQGNQAHQDPLP [HIV-1 Tat-derived peptide]”, the “disturbing the cross-linking” value in the series with NRP-1 [4] is recorded as “displayed potency in disturbing the cross-linking of VEGF to NRP-1”.

For “SYGRKKRRQRRR [HIV-1 Tat-derived peptide]”, the “disturbing the cross-linking” value with NRP-1 [4] is “displayed potency in disturbing the cross-linking of VEGF to NRP-1”.
